The nature of test [1]: In vitro fragmentation of DNA in the presence of excess calf thymus topoisomerase.
A short description of test [2]: Minimum concentration that produced 50% fragmentation of DNA was measured in the presence of excess calf thymus topoisomerase.

The source of these data is BindingDB's records for doi:10.1021/jm00007a008 (Glaxo Inc. Research Institute, 1995).

Each structure is given as a SMILES string.

The term IC50 denotes the concentration that inhibits the measured activity by half.

For `CCc1c2c(nc3cnc(CN)cc13)-c1cc3c(c(=O)n1C2)COC(=O)[C@]3(O)CC` [(S)-9-Aminomethyl-4,11-diethyl-4-hydroxy-1,12-dihydro-4H-2-oxa-6,8,12a-triaza-dibenzo[b,h]fluorene-3,13-dione], the IC50 in test [1] stood at 0.167 µM.
As to `CCc1c2c(nc3cnc(C#CCN)cc13)-c1cc3c(c(=O)n1C2)COC(=O)[C@]3(O)CC` [(S)-9-(3-Amino-prop-1-ynyl)-4,11-diethyl-4-hydroxy-1,12-dihydro-4H-2-oxa-6,8,12a-triaza-dibenzo[b,h]fluorene-3,13-dione], the IC50 in test [2] turned out to be 1.07 µM.
For the molecule `CCc1c2c(nc3cnc(C(=O)NCCN(C)C)cc13)-c1cc3c(c(=O)n1C2)COC(=O)[C@]3(O)CC` [(S)-4,11-Diethyl-4-hydroxy-3,13-dioxo-3,4,12,13-tetrahydro-1H-2-oxa-6,8,12a-triaza-dibenzo[b,h]fluorene-9-carboxylic acid (2-dimethylamino-ethyl)-amide], the 50% inhibitory concentration (IC50) in test [1] was 9.33 µM.
As for `CCOC(=O)c1cc2c(CC)c3c(nc2cn1)-c1cc2c(c(=O)n1C3)COC(=O)[C@]2(O)CC` [(S)-4,11-Diethyl-4-hydroxy-3,13-dioxo-3,4,12,13-tetrahydro-1H-2-oxa-6,8,12a-triaza-dibenzo[b,h]fluorene-9-carboxylic acid ethyl ester], the 50% inhibitory concentration (IC50) in test [1] turned out to be 0.949 µM.
Regarding `CCc1c2c(nc3cnc(C(=N)NO)cc13)-c1cc3c(c(=O)n1C2)COC(=O)[C@]3(O)CC` [(S)-4,11-Diethyl-4,N-dihydroxy-3,13-dioxo-3,4,12,13-tetrahydro-1H-2-oxa-6,8,12a-triaza-dibenzo[b,h]fluorene-9-carboxamidine], in test [2], the IC50 stood at 0.071 µM.
For the molecule `CC[C@@]1(O)C(=O)OCc2c1cc1n(c2=O)Cc2c-1nc1c[n+]([O-])c(CN)cc1c2C` [(S)-9-Aminomethyl-4-ethyl-4-hydroxy-11-methyl-8-oxy-1,12-dihydro-4H-2-oxa-6,8,12a-triaza-dibenzo[b,h]fluorene-3,13-dione], the IC50 in test [2] amounted to 0.19 µM.
Still for that read-out and setting: under `CC[C@@]1(O)C(=O)OCc2c1cc1n(c2=O)Cc2c-1nc1cnc(CN)cc1c2C` [(S)-9-Aminomethyl-4-ethyl-4-hydroxy-11-methyl-1,12-dihydro-4H-2-oxa-6,8,12a-triaza-dibenzo[b,h]fluorene-3,13-dione] stands 0.232 µM.
As to `CC[C@@]1(O)C(=O)OCc2c1cc1n(c2=O)Cc2c-1nc1cnc(C#CCN3CCOCC3)cc1c2C` [(S)-4-Ethyl-4-hydroxy-11-methyl-9-(3-morpholin-4-yl-prop-1-ynyl)-1,12-dihydro-4H-2-oxa-6,8,12a-triaza-dibenzo[b,h]fluorene-3,13-dione], in test [1], the half-maximal inhibitory concentration (IC50) turned out to be 1.11 µM.
On the same count and under the same terms, for `CCc1c2c(nc3cnc(C#N)cc13)-c1cc3c(c(=O)n1C2)COC(=O)[C@]3(O)CC` [(S)-4,11-Diethyl-4-hydroxy-3,13-dioxo-3,4,12,13-tetrahydro-1H-2-oxa-6,8,12a-triaza-dibenzo[b,h]fluorene-9-carbonitrile] the value was 0.268 µM; for `CC[C@@]1(O)C(=O)OCc2c1cc1n(c2=O)Cc2cc3ccncc3nc2-1` [(S)-4-Ethyl-4-hydroxy-1,12-dihydro-4H-2-oxa-6,8,12a-triaza-dibenzo[b,h]fluorene-3,13-dione], 0.383 µM.
In the case of `CCc1c2c(nc3c[n+](C)ccc13)-c1cc3c(c(=O)n1C2)COC(=O)[C@]3(O)CC` [(S)-4,11-Diethyl-4-hydroxy-8-methyl-3,13-dioxo-3,4,12,13-tetrahydro-1H-2-oxa-6,12a-diaza-8-azonia-dibenzo[b,h]fluorene; iodide], the IC50 in test [2] was 1.46 µM.
With `CCc1c2c(nc3cnc(C#CCN(C)C)cc13)-c1cc3c(c(=O)n1C2)COC(=O)[C@]3(O)CC` [(S)-9-(3-Dimethylamino-prop-1-ynyl)-4,11-diethyl-4-hydroxy-1,12-dihydro-4H-2-oxa-6,8,12a-triaza-dibenzo[b,h]fluorene-3,13-dione], the concentration for half-maximal inhibition (IC50) in test [1] is 1.33 µM.
On the same count and under the same terms, under `CCc1c2c(nc3cnccc13)-c1cc3c(c(=O)n1C2)COC(=O)[C@]3(O)CC` [(S)-4,11-Diethyl-4-hydroxy-1,12-dihydro-4H-2-oxa-6,8,12a-triaza-dibenzo[b,h]fluorene-3,13-dione] stands 0.336 µM; under `CCc1c2c(nc3cnc(Br)cc13)-c1cc3c(c(=O)n1C2)COC(=O)[C@]3(O)CC` [(S)-9-Bromo-4,11-diethyl-4-hydroxy-1,12-dihydro-4H-2-oxa-6,8,12a-triaza-dibenzo[b,h]fluorene-3,13-dione], 0.122 µM.
On to `CCc1c2c(nc3cnc(CCCN(C)C)cc13)-c1cc3c(c(=O)n1C2)COC(=O)[C@]3(O)CC` [(S)-9-(3-Dimethylamino-propyl)-4,11-diethyl-4-hydroxy-1,12-dihydro-4H-2-oxa-6,8,12a-triaza-dibenzo[b,h]fluorene-3,13-dione], for which the IC50 in test [1] turned out to be 1.49 µM.
Turning to `CCc1c2c(nc3cnc(C(=N)N)cc13)-c1cc3c(c(=O)n1C2)COC(=O)[C@]3(O)CC` [(S)-4,11-Diethyl-4-hydroxy-3,13-dioxo-3,4,12,13-tetrahydro-1H-2-oxa-6,8,12a-triaza-dibenzo[b,h]fluorene-9-carboxamidine], the half-inhibitory concentration (IC50) in test [2] was 0.033 µM.
As to `CC[C@@]1(O)C(=O)OCc2c1cc1n(c2=O)Cc2c-1nc1c[n+]([O-])c(CNC(=O)OC(C)(C)C)cc1c2C` [((S)-4-Ethyl-4-hydroxy-11-methyl-3,13-dioxo-8-oxy-3,4,12,13-tetrahydro-1H-2-oxa-6,8,12a-triaza-dibenzo[b,h]fluoren-9-ylmethyl)-carbamic acid tert-butyl ester], in test [1], the IC50 was 0.217 µM.
Same read-out and setting: for `CC[C@@]1(O)C(=O)OCc2c1cc1n(c2=O)Cc2cc3cc[n+]([O-])cc3nc2-1` [(S)-4-Ethyl-4-hydroxy-8-oxy-1,12-dihydro-4H-2-oxa-6,8,12a-triaza-dibenzo[b,h]fluorene-3,13-dione] the value was 1.18 µM; for `CC[C@@]1(O)C(=O)OCc2c1cc1n(c2=O)Cc2c-1nc1cnc(C#CCN)cc1c2C` [(S)-9-(3-Amino-prop-1-ynyl)-4-ethyl-4-hydroxy-11-methyl-1,12-dihydro-4H-2-oxa-6,8,12a-triaza-dibenzo[b,h]fluorene-3,13-dione], 0.505 µM.
